Literature values in article PMC9897045 (ACS Omega, 2023).
Read-outs that look alike come from different tables or passages of the source.

Assays:
[1] = test system: SARS-CoV-2
[2] = test system: main protease (Mpro, 3CLpro, nsp5); settings: read-out: EC50 against main protease (Mpro)

In the case of `Cn1cnc(Cn2c(=O)[nH]/c(=N\c3cc4cn(C)nc4cc3Cl)n(Cc3cc(F)c(F)cc3F)c2=O)n1` [S-217622, (6E)-6-[(6-chloro-2-methyl-2H-indazol-5-yl)imino]-3-[(1-methyl-1H-1,2,4-triazol-3-yl)methyl]-1-(2,4,5-trifluorobenzyl)-1,3,5-triazinane-2,4-dione], the EC50 ([1]; read-out: EC50 against SARS-CoV-2, range over strains, CPE EC50) is listed as 290 to 500 nM, the EC50 ([1]; read-out: EC50 against SARS-CoV-2 Alpha strain, strain QK002) is listed as 330 nM and the EC50 ([1]; read-out: EC50 against SARS-CoV-2 Beta strain, strain TY8-612) is listed as 400 nM. For the same compound, the EC50 ([1]; read-out: EC50 against SARS-CoV-2 Delta strain, strain TY11-927-P1) was 410 nM, the EC50 ([1]; read-out: EC50 against SARS-CoV-2 Gamma strain, strain TY7-501) was 500 nM and the EC50 ([1]; read-out: EC50 against SARS-CoV-2 Omicron strain, strain TY38-873) was 290 nM. For the same compound, the EC50 [2] was 13 nM.
